Holding throughout (type): cell-based
Test [1] has as its system E. coli.
The test system of test [2] is A. calcoaceticus.
Test [3] relates to E. cloacae. The conditions noted are these: E. cloacae strain ECL007.
Test [4] concerns S. marcescens.
The subject of test [5] is E. faecalis.
In test [6] the test system is E. faecium.
The test system of test [7] is S. aureus.
For test [8], the system named is K. pneumoniae.
Test [9] has as its system P. aeruginosa.
Test [10] relates to S. maltophilia.
Test [11] concerns inherently resistant microorganisms. Kind of test: microbe, parasite or virus in culture.
Test [12] has as its system microorganisms with acquired resistance. Kind of test: microbe, parasite or virus in culture.
The subject of test [13] is S. epidermidis. The following applies: S. epidermidis strain SE010.
In test [14] the test system is bacterial isolates. Kind of test: microbe, parasite or virus in culture.
Where [15] appears, read: peptide + Amikacin, P. aeruginosa PA022.
[16] abbreviates: peptide + Gentamicin, A. baumannii ABI001.
Setting [17] is: peptide + Gentamicin, A. baumannii ABI002.
Setting [18] is: peptide + Gentamicin, A. calcoaceticus AC001.
[19] abbreviates: peptide + Gentamicin, P. aeruginosa PA041.
[20] abbreviates: peptide + Gentamicin, S. maltophilia SMA019.

As usually defined, the MIC is the smallest concentration in the dilution series that meets the test's criterion for growth inhibition.

Where two headings read alike, the source gives them in different places.

For the sequence ILKKWPWWPWRRKMILKKAGS [MBI 11D4CN], the MIC was 64 µg/mL in [1] (E. coli strain ECO003); greater than 64 µg/mL in test [2] (A. calcoaceticus strain AC001); greater than 64 µg/mL in test [3]; greater than 64 µg/mL in test [4] (S. marcescens strain SMS004); 16 µg/mL in test [5] (E. faecalis strain EFS002); 1 µg/mL in test [6] (E. faecium strain EFM002). Moreover, the MIC was 4 µg/mL in [7] (S. aureus strain SA009), greater than 64 µg/mL in test [8] (K. pneumoniae strain KP002), greater than 64 µg/mL in [9] (P. aeruginosa strain PA004) and greater than 64 µg/mL in [10] (S. maltophilia strain SMA001).
For ILKKNPNNPNRRK [MBI 11M8], the MIC in [5] (E. faecalis EFS002), in test [6] (E. faecium EFM002) and in [7] (S. aureus SA008) was 32 µg/mL throughout.
In the case of ILKKPWWPWRRK [MBI 11G3CN], the MIC in test [1] (E. coli strain ECO003) was 64 µg/mL; in [3], greater than 128 µg/mL; in [4] (S. marcescens strain SMS004), greater than 128 µg/mL; in test [5] (E. faecalis strain EFS002) it was 64 µg/mL; in test [6] (E. faecium strain EFM002), 32 µg/mL; in [7] (S. aureus strain SA009) it was 8 µg/mL. The MIC in test [8] (K. pneumoniae strain KP001), in test [9] (P. aeruginosa strain PA003) and in test [10] (S. maltophilia strain SMA001) was greater than 128 µg/mL each time.
ILKKWWWPWRK [MBI 11D14CN]: the values for the MIC in test [5] (E. faecalis strain EFS002), in [6] (E. faecium strain EFM003) and in test [7] (S. aureus strain SA009) were 32 µg/mL, 1 µg/mL and 4 µg/mL, respectively.
For the sequence ILKKWPWWWRK [MBI 11D15CN], the MIC in test [5] (E. faecalis strain EFS002) is 32 µg/mL; in test [6] (E. faecium strain EFM003) it was 4 µg/mL; in test [7] (S. aureus strain SA009), 8 µg/mL.
Consider ILRWPWWPWRRKIMILKKAGS [MBI 11B16CN], for which the MIC is 16 µg/mL in [1] (E. coli strain ECO005); 4 µg/mL in test [2] (A. calcoaceticus strain AC002); greater than 128 µg/mL in test [3]; greater than 128 µg/mL in [4] (S. marcescens strain SMS003); 2 µg/mL in test [5] (E. faecalis strain EFS001); 2 µg/mL in [7] (S. aureus strain SA093). In addition, the MIC in test [13] is 4 µg/mL; in test [8] (K. pneumoniae strain KP001), 16 µg/mL; in test [9] (P. aeruginosa strain PA004), greater than 128 µg/mL; in test [10] (S. maltophilia strain SMA002) it was 32 µg/mL. The “Peptide MIC + Amikacin” value in [11] (A. baumannii) is 4 µg/mL; in test [11] (S. aureus MRSA), 4 µg/mL; in test [12] (P. aeruginosa PA022), 16 µg/mL; in test [14] (A. baumannii ABI001), 16 µg/mL; in test [14] (A. baumannii ABI003), 8 µg/mL; in test [14] (E. faecalis EFS008), 0.25 µg/mL. Also, the “Peptide MIC + Amikacin” value was found to be 16 µg/mL in test [14] (P. aeruginosa PA022), 32 µg/mL in test [14] (P. aeruginosa PA037), 8 µg/mL in [14] (S. maltophilia SMA018) and 16 µg/mL in test [14] (S. maltophilia SMA022). Moreover, the “Peptide MIC Alone” value in test [11] (A. baumannii, Amikacin section) is 32 µg/mL; in [11] (S. aureus MRSA, Amikacin section), 8 µg/mL; in test [11] (S. aureus MRSA, Gentamicin section) it was 8 µg/mL; in test [12] (A. baumannii ABI001, Gentamicin section), 16 µg/mL; in test [12] (A. baumannii ABI002, Gentamicin section), 16 µg/mL; in [12] (A. calcoaceticus AC001, Gentamicin section) it was 32 µg/mL. Moreover, the “Peptide MIC Alone” value in [12] (P. aeruginosa PA022, Amikacin section) is 64 µg/mL; in test [12] (P. aeruginosa PA023, Gentamicin section), greater than 128 µg/mL; in test [12] (P. aeruginosa PA041, Gentamicin section), greater than 128 µg/mL; in test [12] (S. maltophilia SMA017, Gentamicin section), 128 µg/mL; in test [12] (S. maltophilia SMA019, Gentamicin section) it was 32 µg/mL; in [14] (1. Amikacin, A. baumannii ABI001) it was 32 µg/mL. The “Peptide MIC Alone” value is 16 µg/mL in test [14] (1. Amikacin, A. baumannii ABI003); 8 µg/mL in test [14] (1. Amikacin, E. faecalis EFS008); 64 µg/mL in [14] (1. Amikacin, P. aeruginosa PA022); greater than 128 µg/mL in [14] (1. Amikacin, P. aeruginosa PA037); 32 µg/mL in test [14] (1. Amikacin, S. maltophilia SMA018); greater than 128 µg/mL in test [14] (1. Amikacin, S. maltophilia SMA022). Further, the “Peptide MIC Alone” value in test [14] (4. Gentamicin, A. baumannii ABI001) is 16 µg/mL; in test [14] (4. Gentamicin, A. baumannii ABI002) it was 16 µg/mL; in [14] (4. Gentamicin, A. calcoaceticus AC001) it was 32 µg/mL; in test [14] (4. Gentamicin, E. faecalis EFS008) it was 4 µg/mL; in [14] (4. Gentamicin, P. aeruginosa PA022), 64 µg/mL; in test [14] (4. Gentamicin, P. aeruginosa PA041), greater than 128 µg/mL. Moreover, the “Peptide MIC Alone” value in test [14] (4. Gentamicin, S. aureus SA014 MRSA) was 8 µg/mL; in test [14] (4. Gentamicin, S. maltophilia SMA016), greater than 128 µg/mL; in test [14] (4. Gentamicin, S. maltophilia SMA019), 32 µg/mL. Besides, the “Peptide MIC + Gentamicin” value is 4 µg/mL in test [11] (S. aureus MRSA); 4 µg/mL in test [12] (A. baumannii ABI001); 4 µg/mL in test [12] (A. baumannii ABI002); 4 µg/mL in [12] (A. calcoaceticus AC001); 16 µg/mL in test [12] (P. aeruginosa PA023); 16 µg/mL in [12] (P. aeruginosa PA041). The “Peptide MIC + Gentamicin” value was 16 µg/mL in test [12] (S. maltophilia SMA017); 16 µg/mL in [12] (S. maltophilia SMA019); 4 µg/mL in [14] (A. baumannii ABI001); 4 µg/mL in [14] (A. baumannii ABI002); 4 µg/mL in test [14] (A. calcoaceticus AC001); 0.5 µg/mL in test [14] (E. faecalis EFS008). The “Peptide MIC + Gentamicin” value in test [14] (P. aeruginosa PA022) was 8 µg/mL; in test [14] (P. aeruginosa PA041), 16 µg/mL; in test [14] (S. aureus SA014 MRSA) it was 4 µg/mL; in [14] (S. maltophilia SMA016), 16 µg/mL; in test [14] (S. maltophilia SMA019), 8 µg/mL. The FIC in test [11] (peptide + Amikacin, A. baumannii) is listed as 0.25; in test [11] (peptide + Gentamicin, S. aureus MRSA), 0.53; in test [12] (setting [15]), 0.38; in [12] (setting [16]), 0.31; in test [12] (setting [17]), 0.31; in test [12] (setting [18]), 0.25. The FIC was 0.56 in test [12] (peptide + Gentamicin, P. aeruginosa PA023); 0.31 in test [12] (setting [19]); 0.16 in test [12] (peptide + Gentamicin, S. maltophilia SMA017); 0.51 in test [12] (setting [20]); 0.50 in [14] (peptide + Amikacin, A. baumannii ABI001); 0.53 in [14] (peptide + Amikacin, A. baumannii ABI003). Moreover, the FIC was determined as 0.28 in [14] (peptide + Amikacin, E. faecalis EFS008); 0.38 in test [14] (setting [15]); 0.25 in test [14] (peptide + Amikacin, P. aeruginosa PA037); 0.31 in [14] (peptide + Amikacin, S. maltophilia SMA018); 0.09 in test [14] (peptide + Amikacin, S. maltophilia SMA022); 0.31 in test [14] (setting [16]). The FIC in test [14] (setting [17]) is given as 0.31; in [14] (setting [18]), 0.25; in test [14] (peptide + Gentamicin, E. faecalis EFS008) it was 0.38; in test [14] (peptide + Gentamicin, P. aeruginosa PA022), 0.38; in [14] (setting [19]) it was 0.31; in test [14] (peptide + Gentamicin, S. aureus SA014 MRSA) it was 0.53. Further, the FIC turned out to be 0.31 in test [14] (peptide + Gentamicin, S. maltophilia SMA016) and 0.38 in test [14] (setting [20]). In addition, the “Gentamicin MIC + Peptide” value in test [12] (A. baumannii ABI001) is 4 µg/mL; in [12] (A. baumannii ABI002), 2 µg/mL; in test [12] (A. calcoaceticus AC001) it was 1 µg/mL; in [12] (P. aeruginosa PA023) it was 4 µg/mL; in test [12] (P. aeruginosa PA041), 2 µg/mL; in test [12] (S. maltophilia SMA017) it was 2 µg/mL. The “Gentamicin MIC + Peptide” value in test [12] (S. maltophilia SMA019) is 0.5 µg/mL; in test [14] (A. baumannii ABI001), 4 µg/mL; in [14] (A. baumannii ABI002), 2 µg/mL; in test [14] (A. calcoaceticus AC001), 1 µg/mL; in test [14] (E. faecalis EFS008), 64 µg/mL; in [14] (P. aeruginosa PA022), 8 µg/mL. In addition, the “Gentamicin MIC + Peptide” value is 2 µg/mL in test [14] (P. aeruginosa PA041), 1 µg/mL in test [14] (S. aureus SA014 MRSA), 64 µg/mL in test [14] (S. maltophilia SMA016) and 8 µg/mL in test [14] (S. maltophilia SMA019). Also, the “Amikacin MIC + Peptide” value in test [12] (P. aeruginosa PA022) amounted to 8 µg/mL; in [14] (A. baumannii ABI001), 0.125 µg/mL; in [14] (A. baumannii ABI003), 0.5 µg/mL; in test [14] (E. faecalis EFS008) it was 8 µg/mL; in test [14] (P. aeruginosa PA022), 8 µg/mL; in test [14] (P. aeruginosa PA037), 2 µg/mL. The “Amikacin MIC + Peptide” value in [14] (S. maltophilia SMA018) and in test [14] (S. maltophilia SMA022) was 8 µg/mL in each case.

These data come from patent publication US20020035061A1, “COMPOSITIONS AND METHODS FOR TREATING INFECTIONS USING CATIONIC PEPTIDES ALONE OR IN COMBINATION WITH ANTIBIOTICS” (priority 1996, published 2002).
